Legend:
Assay type in all cases: functional
ACHN = assay: Growth inhibition of human ACHN cells after 48 hrs by SRB assay
IGROV-1 = assay: Growth inhibition of human IGROV1 cells after 48 hrs by SRB assay; details: IGROV-1, 48 h
RPMI-8226 = assay: Growth inhibition of human RPMI8226 cells after 48 hrs by SRB assay; details: RPMI-8226, 48 h
SF-295 = assay: Growth inhibition of human SF295 cells after 48 hrs by SRB assay; details: SF-295, 48 h
T47D = assay: Growth inhibition of human T47D cells after 48 hrs by SRB assay
UACC-62 = assay: Growth inhibition of human UACC62 cells after 48 hrs by SRB assay; details: UACC-62, 48 h
HCT-116 = assay: Growth inhibition of human HCT116 cells after 48 hrs by SRB assay; details: HCT-116, 48 h
U-251 = assay: Growth inhibition of human U251 cells after 48 hrs by SRB assay; details: U-251, 48 h
TK-10 = assay: Growth inhibition of human TK10 cells after 48 hrs by SRB assay; details: TK-10, 48 h
A498 = assay: Growth inhibition of human A498 cells after 48 hrs by SRB assay; details: A498, 48 h
HOP-62 = assay: Growth inhibition of human HOP62 cells after 48 hrs by SRB assay; details: HOP-62, 48 h
SF-268 = assay: Growth inhibition of human SF268 cells after 48 hrs by SRB assay; details: SF-268, 48 h
OVCAR-8 = assay: Growth inhibition of human OVCAR8 cells after 48 hrs by SRB assay; details: OVCAR-8, 48 h
UACC-257 = assay: Growth inhibition of human UACC257 cells after 48 hrs by SRB assay; details: UACC-257, 48 h
HL-60(TB) = assay: Growth inhibition of human HL-60(TB) cells after 48 hrs by SRB assay; details: HL-60, 48 h
SR = assay: Growth inhibition of human SR cells after 48 hrs by SRB assay
KM12 = assay: Growth inhibition of human KM12 cells after 48 hrs by SRB assay; details: KM12, 48 h
NCI-H226 = assay: Growth inhibition of human NCI-H226 cells after 48 hrs by SRB assay; details: NCI-H226, 48 h
UO-31 = assay: Growth inhibition of human UO31 cells after 48 hrs by SRB assay; details: UO-31, 48 h
LOX IMVI = assay: Growth inhibition of human LOXIMVI cells after 48 hrs by SRB assay
NCI-H460 = assay: Growth inhibition of human NCI-H460 cells after 48 hrs by SRB assay; details: NCI-H460, 48 h
K562 = assay: Growth inhibition of human K562 cells after 48 hrs by SRB assay; details: K562, 48 h
SK-MEL-28 = assay: Growth inhibition of human SK-MEL-28 cells after 48 hrs by SRB assay; details: SK-MEL-28, 48 h
NCI-H322M = assay: Growth inhibition of human NCI-H322M cells after 48 hrs by SRB assay
OVCAR-5 = assay: Growth inhibition of human OVCAR5 cells after 48 hrs by SRB assay; details: OVCAR-5, 48 h
NCI-H23 = assay: Growth inhibition of human NCI-H23 cells after 48 hrs by SRB assay; details: NCI-H23, 48 h
OVCAR-4 = assay: Growth inhibition of human OVCAR4 cells after 48 hrs by SRB assay; details: OVCAR-4, 48 h
HT-29 = assay: Growth inhibition of human HT-29 cells after 48 hrs by SRB assay; details: HT-29, 48 h
MCF7 = assay: Growth inhibition of human MCF7 cells after 48 hrs by SRB assay; details: MCF7, 48 h
786-0 = assay: Growth inhibition of human 786-0 cells after 48 hrs by SRB assay; details: 786-0, 48 h
MDA-MB-435 = assay: Growth inhibition of human MDA-MB-435 cells after 48 hrs by SRB assay; details: MDA-MB-435, 48 h
HOP-92 = assay: Growth inhibition of human HOP92 cells after 48 hrs by SRB assay; details: HOP-92, 48 h
SN12C = assay: Growth inhibition of human SN12C cells after 48 hrs by SRB assay
PC-3 = assay: Growth inhibition of human PC3 cells after 48 hrs by SRB assay; details: PC-3, 48 h
NCI/ADR-RES = assay: Growth inhibition of human NCI/ADR-RES cells after 48 hrs by SRB assay
RXF 393 = assay: Growth inhibition of human […] cells after 48 hrs by SRB assay; details: RXF 393, 48 h
COLO 205 = assay: Growth inhibition of human COLO205 cells after 48 hrs by SRB assay; details: COLO 205, 48 h
SK-MEL-5 = assay: Growth inhibition of human SK-MEL-5 cells after 48 hrs by SRB assay; details: SK-MEL-5, 48 h
A549 = assay: Growth inhibition of human A549 cells after 48 hrs by SRB assay; details: A549, 48 h
HCC 2998 = assay: Growth inhibition of human HCC2998 cells after 48 hrs by SRB assay; details: HCC 2998, 48 h
OVCAR-3 = assay: Growth inhibition of human OVCAR-3 cells after 48 hrs by SRB assay; details: OVCAR-3, 48 h
Malme-3M = assay: Growth inhibition of human MALME-3M cells after 48 hrs by SRB assay
BT-549 = assay: Growth inhibition of human BT549 cells after 48 hrs by SRB assay; details: BT-549, 48 h
SF-539 = assay: Growth inhibition of human SF539 cells after 48 hrs by SRB assay; details: SF-539, 48 h
M14 = assay: Growth inhibition of human M14 cells after 48 hrs by SRB assay; details: M14, 48 h
EKVX = assay: Growth inhibition of human EKVX cells after 48 hrs by SRB assay
CAKI-1 = assay: Growth inhibition of human Caki1 cells after 48 hrs by SRB assay; details: CAKI-1, 48 h
MOLT-4 = assay: Growth inhibition of human MOLT4 cells after 48 hrs by SRB assay; details: MOLT-4, 48 h
HCT-15 = assay: Growth inhibition of human HCT15 cells after 48 hrs by SRB assay; details: HCT-15, 48 h
[1] = Growth inhibition of human Hs 578T cells after 48 hrs by SRB assay
DU-145 = assay: Growth inhibition of human DU145 cells after 48 hrs by SRB assay; details: DU-145, 48 h
SW-620 = assay: Growth inhibition of human SW620 cells after 48 hrs by SRB assay; details: SW-620, 48 h
NCI-H522 = assay: Growth inhibition of human NCI-H522 cells after 48 hrs by SRB assay; details: NCI-H522, 48 h
SK-OV-3 = assay: Growth inhibition of human SKOV3 cells after 48 hrs by SRB assay; details: SK-OV-3, 48 h
SNB-19 = assay: Growth inhibition of human SNB19 cells after 48 hrs by SRB assay; details: SNB-19, 48 h
SK-MEL-2 = assay: Growth inhibition of human SK-MEL-2 cells after 48 hrs by SRB assay; details: SK-MEL-2, 48 h
MDA-MB-231 = assay: Growth inhibition of human MDA-MB-231 cells after 48 hrs by SRB assay; details: MDA-MB-231, 48 h
SNB-75 = assay: Growth inhibition of human SNB75 cells after 48 hrs by SRB assay; details: SNB-75, 48 h

## Nc1nn(C(=O)Nc2c(F)cccc2F)c2ccccc12
ACHN
  GI50: 50.1 µM
IGROV-1
  GI50: 7.7 µM
RPMI-8226
  GI50: 16.1 µM
SF-295
  GI50: 54.8 µM
T47D
  GI50: 68.7 µM
UACC-62
  GI50: 43.9 µM
HCT-116
  GI50: 34.8 µM
U-251
  GI50: 96.1 µM
TK-10
  GI50: < 100 µM
A498
  GI50: 31.4 µM
HOP-62
  GI50: 51 µM
SF-268
  GI50: 36.2 µM
OVCAR-8
  GI50: 44.2 µM
UACC-257
  GI50: 71.7 µM
HL-60(TB)
  GI50: 33.2 µM
SR
  GI50: 12.9 µM
KM12
  GI50: 86.2 µM
NCI-H226
  GI50: 98.5 µM
UO-31
  GI50: 18.6 µM
LOX IMVI
  GI50: 49.3 µM
NCI-H460
  GI50: 33.4 µM
K562
  GI50: < 100 µM
SK-MEL-28
  GI50: 56.3 µM
NCI-H322M
  GI50: < 100 µM
OVCAR-5
  GI50: < 100 µM
NCI-H23
  GI50: 95.6 µM
OVCAR-4
  GI50: 57.8 µM
HT-29
  GI50: 74.6 µM
MCF7
  GI50: 60 µM
786-0
  GI50: < 100 µM
MDA-MB-435
  GI50: 54.9 µM
HOP-92
  GI50: 17.3 µM
SN12C
  GI50: < 100 µM
PC-3
  GI50: < 100 µM
NCI/ADR-RES
  GI50: 56.5 µM
RXF 393
  GI50: 20.2 µM
COLO 205
  GI50: < 100 µM
SK-MEL-5
  GI50: 39.7 µM
A549
  GI50: 48.5 µM
HCC 2998
  GI50: 95.8 µM
OVCAR-3
  GI50: 65.7 µM
Malme-3M
  GI50: < 100 µM
BT-549
  GI50: 28.8 µM
SF-539
  GI50: 31.4 µM
M14
  GI50: 74.7 µM
EKVX
  GI50: 84 µM
CAKI-1
  GI50: 45.3 µM
MOLT-4
  GI50: 32.7 µM
HCT-15
  GI50: 40.9 µM
[1]
  GI50: 73 µM
DU-145
  GI50: 62.3 µM
SW-620
  GI50: 38.3 µM
NCI-H522
  GI50: 55.1 µM
SK-OV-3
  GI50: < 100 µM
SNB-19
  GI50: < 100 µM
SK-MEL-2
  GI50: < 100 µM
MDA-MB-231
  GI50: 98.8 µM

## O=C(Nc1ccc(Cc2ccccc2)cc1)Nc1nn(C(=O)Nc2ccc(Cc3ccccc3)cc2)c2ccccc12
ACHN
  GI50: > 100 µM
IGROV-1
  GI50: > 100 µM
RPMI-8226
  GI50: > 100 µM
SF-295
  GI50: > 100 µM
T47D
  GI50: > 100 µM
UACC-62
  GI50: 41.6 µM
HCT-116
  GI50: > 100 µM
U-251
  GI50: 70.2 µM
TK-10
  GI50: > 100 µM
A498
  GI50: 82.4 µM
HOP-62
  GI50: 59.7 µM
SF-268
  GI50: 75.6 µM
OVCAR-8
  GI50: > 100 µM
UACC-257
  GI50: > 100 µM
HL-60(TB)
  GI50: > 100 µM
SR
  GI50: 16.3 µM
KM12
  GI50: > 100 µM
NCI-H226
  GI50: > 100 µM
UO-31
  GI50: > 100 µM
LOX IMVI
  GI50: 71 µM
NCI-H460
  GI50: > 100 µM
K562
  GI50: 40.5 µM
SK-MEL-28
  GI50: > 100 µM
NCI-H322M
  GI50: > 100 µM
OVCAR-5
  GI50: > 100 µM
NCI-H23
  GI50: > 100 µM
OVCAR-4
  GI50: > 100 µM
HT-29
  GI50: > 100 µM
MCF7
  GI50: > 100 µM
786-0
  GI50: > 100 µM
MDA-MB-435
  GI50: > 100 µM
HOP-92
  GI50: 18 µM
SN12C
  GI50: > 100 µM
PC-3
  GI50: > 100 µM
NCI/ADR-RES
  GI50: > 100 µM
RXF 393
  GI50: 30.4 µM
SNB-75
  GI50: 33.8 µM
COLO 205
  GI50: > 100 µM
SK-MEL-5
  GI50: > 100 µM
A549
  GI50: > 100 µM
HCC 2998
  GI50: > 100 µM
OVCAR-3
  GI50: > 100 µM
Malme-3M
  GI50: > 100 µM
BT-549
  GI50: > 100 µM
SF-539
  GI50: > 100 µM
M14
  GI50: > 100 µM
EKVX
  GI50: > 100 µM
CAKI-1
  GI50: > 100 µM
MOLT-4
  GI50: 63.2 µM
HCT-15
  GI50: > 100 µM
[1]
  GI50: 74.2 µM
DU-145
  GI50: 80 µM
SW-620
  GI50: > 100 µM
NCI-H522
  GI50: > 100 µM
SK-OV-3
  GI50: > 100 µM
SNB-19
  GI50: > 100 µM
SK-MEL-2
  GI50: > 100 µM
MDA-MB-231
  GI50: 47.1 µM

Reference: ChEMBL document CHEMBL1152860, “Synthesis and antiproliferative activity of 3-amino-N-phenyl-1H-indazole-1-carboxamides” (2009)
